Experimental findings from patent US5190938A, “Derivatives of 2-hydroxythiophene and -furan fused with a nitrogen-containing ring and their application in therapy” (Sanofi, priority 1989, dated 1993) are described below.

In assay [1] the target is porcine pancreatic elastase (Sus scrofa, UniProt P00772). Description: In vitro inhibition of elastase enzymatic activity (hydrolysis of Suc-Ala-Ala-Pro-LeupNA), Table I. The assay is classed as biochemical. Conditions: 25° C., pH 8.8, concentration in the final solution. Here is the method:
(§1) a) In vitro inhibition of elastase enzymatic activity.
(§2) The variation of the rate of hydrolysis of a substrate specific of elastases was studied in the presence and absence of the test compound according to a conventional technique. The experiments were performed with porcine pancreatic elastase, and human neutrophil elastase extracted from purulent sputum; the enzyme substrate was a chromogenic tetrapeptide, N-succinyl-L-alanyl-L-alanyl-[…]-L-leucyl-p-nitroanilide, designated Suc-Ala-Ala-Pro-LeupNA, which, on hydrolysis, liberates p-nitroaniline, the appearance of which in the medium is followed in a spectrophotometer; alpha1 -antitrypsin was used as a standard inhibitor. The experiments were performed at 25° C., the spectrophotometric measurement being made at 410 nm.
(§3) The solution of substrate was prepared by dissolving 5.8 mg of anilide in 20 ml of buffer solution containing 24.22 g/l of Tris-HCl with 754 mg/l of CaCl2, adjusted to pH 8.8.
(§4) The solution of enzyme in the same buffer was at a concentration of 0.1 g/l, while the solutions of test compound in the same buffer were at concentrations of between 0.1 mM and 0.01 μM.
(§5) 200 μl of solution of substrate, 75 μl of buffer solution and 200 μl of solution of the test compound, or of buffer solution in the case of the controls, were mixed in tubes. After 20 minutes at 25° C., the tube was placed in the recording spectrophotometer and 25 μl of the solution of enzyme were added to this medium; the change in the optical density ΔOD was recorded for 30 seconds.
(§6) The percentage inhibition is defined as the difference between the change in OD for the control sample and that for the test sample, divided by the change for the control and multiplied by 100. [formula]

The next assay concerns the target T1, human leucocyte elastase (Homo sapiens, UniProt P08246).
T1 construct: human neutrophil elastase extracted from purulent sputum; from tissue; host or cells: purulent sputum
T1 sequence (P08246 30-247 limits assumed): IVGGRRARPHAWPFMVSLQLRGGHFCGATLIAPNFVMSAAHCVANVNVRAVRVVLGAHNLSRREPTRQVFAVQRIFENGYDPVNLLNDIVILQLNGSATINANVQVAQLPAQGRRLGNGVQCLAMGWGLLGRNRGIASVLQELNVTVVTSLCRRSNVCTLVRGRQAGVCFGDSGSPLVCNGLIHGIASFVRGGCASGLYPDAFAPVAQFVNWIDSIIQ
Description: In vitro inhibition of elastase enzymatic activity (hydrolysis of Suc-Ala-Ala-Pro-LeupNA), Table II. The assay is classed as biochemical. Conditions: human leucocyte (neutrophil) elastase from purulent sputum; 25° C.; pH 8.8; concentration in the final solution. Here is the method:
as §1, §2, §3, §4, §5, §6

A further assay has as its system platelet aggregation. Put plainly: Platelet aggregation-inhibitory activity in rats (blood taken from treated animals, ADP or collagen added). The class given is in vivo. The following applies: Rattus norvegicus, po, orally. An excerpt:
b) Platelet aggregation-inhibitory activity in rats.

The mark [2] stands for this setting: ADP, read-out: percentage inhibition of aggregation, ADP.
Setting [3] is: collagen, read-out: percentage inhibition of aggregation, collagen.

The structures appear in SMILES notation. Structures can show the parent of a compound that is named as a salt. Where two headings read alike, the source gives them in different places.

porcine pancreatic elastase, sequence (P00772 27-266): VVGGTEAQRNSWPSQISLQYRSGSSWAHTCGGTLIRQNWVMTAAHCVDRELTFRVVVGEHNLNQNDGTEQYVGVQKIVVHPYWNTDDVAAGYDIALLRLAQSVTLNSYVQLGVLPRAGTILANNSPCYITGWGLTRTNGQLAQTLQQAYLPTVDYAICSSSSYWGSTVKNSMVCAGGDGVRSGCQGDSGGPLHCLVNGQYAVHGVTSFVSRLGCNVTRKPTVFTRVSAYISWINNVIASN

Regarding `CC(c1ccccc1)N1CCc2sc(OC(=O)C(C)(C)C)cc2C1` (racemic) [SR 27319], the IC50 (usually the concentration that inhibits the measured activity by half) in assay [1] is 4.5 µM; against human leucocyte elastase, 3.4 µM.

For the compound `CCCC(=O)Oc1cc2c(s1)CCN(Cc1ccccc1Cl)C2` [PCR 4094], the half-inhibitory concentration (IC50) is 2 µM in assay [1] and 3.5 µM against human leucocyte elastase.

`CC(C)(C)C(=O)Oc1cc2c(s1)CCN(Cc1ccccc1Cl)C2` [SR 26766, 5-(2-chlorobenzyl)-4,5,6,7-tetrahydrothieno[3,2-c]pyridyl-2 t-butyrate]: the inhibition (as a rule, how much of the control response was suppressed) at 100 mg/kg worked out at 61% in the assay on platelet aggregation (setting [2]) and 62% with platelet aggregation (setting [3]).

For the compound `CCCC(=O)Oc1cc2c(s1)CCN(Cc1ccc(Cl)cc1)C2` [SR 26767], the 50% inhibitory concentration (IC50) in assay [1] amounted to 4.8 µM; at human leucocyte elastase, 3.4 µM.

Take `CC(C)C(=O)Oc1cc2c(s1)CCN(Cc1ccc(Cl)cc1)C2` [SR 26769]: the figures for the 50% inhibitory concentration (IC50) (in assay [1]; against human leucocyte elastase) were 7 µM and 30 µM, respectively.

For the compound `CC(C)C(=O)Oc1cc2c(s1)CCN(Cc1ccccc1Cl)C2` [SR 26772], the IC50 was 5.8 µM in assay [1] and 2.6 µM against human leucocyte elastase.

`CC(C)(C)C(=O)Oc1cc2c(s1)CCN(Cc1ccccc1)C2` [SR 26827]: the results for the inhibition at 100 mg/kg in the assay on platelet aggregation (setting [2]) and in the assay with platelet aggregation (setting [3]) were 48% and 21%, respectively. Also, the figures for the half-inhibitory concentration (IC50) (in assay [1]; against human leucocyte elastase) were 9 µM and 3.4 µM, respectively.

`CC(C)C(=O)Oc1cc2c(s1)CCN(Cc1ccccc1)C2` [SR 26829]: the 50% inhibitory concentration (IC50) turned out to be 8 µM in assay [1] and 24 µM against human leucocyte elastase.

For the compound `CC(C)(C)C(=O)Oc1cc2c(s1)CC[N+]([O-])(Cc1ccccc1Cl)C2` (stereo not shown) [SR 26831], the values for the 50% inhibitory concentration (IC50) (in assay [1]; against human leucocyte elastase) were 5 µM and 2.5 µM, respectively.

`CCCC(=O)Oc1cc2c(s1)CC[N+]([O-])(Cc1ccccc1Cl)C2` (stereo not shown) [SR 26832]: the figures for the IC50 (in assay [1]; against human leucocyte elastase) were 7 µM and 5.6 µM, respectively.

In the case of `CC(C)C(=O)Oc1cc2c(s1)CC[N+]([O-])(Cc1ccccc1Cl)C2` (stereo not shown) [SR 26833], the half-maximal inhibitory concentration (IC50) was 6 µM in assay [1] and 3.6 µM against human leucocyte elastase.

Take `CC(C)(C)C(=O)Oc1cc2c(s1)CCNC2` [SR 26842, 4,5,6,7,-tetrahydrothieno[3,2-c]pyrid-2-yl t-butyrate]: the concentration for half-maximal inhibition (IC50) in assay [1] was determined as 10 µM; against human leucocyte elastase, 3.2 µM.

Regarding `CC(C)C(=O)Oc1cc2c(s1)CCNC2` [SR 26861, 4,5,6,7-Tetrahydrothieno[3,2-c]pyrid-2-yl isobutyrate, hydrochloride], the results for the concentration for half-maximal inhibition (IC50) (in assay [1]; against human leucocyte elastase) were 6.4 µM and 2.6 µM, respectively.

For the compound `CC(C)C(=O)Oc1cc2c(s1)CN(Cc1ccccc1Cl)CC2` [SR 26862], in assay [1], half-maximal inhibition (IC50) was put at 4 µM.

As to `COC(=O)C(c1ccccc1Cl)N1CCc2sc(OC(=O)C(C)C)cc2C1` (stereo not shown) [SR 26886], the half-maximal inhibitory concentration (IC50) was determined as 2.9 µM in assay [1] and 30 µM against human leucocyte elastase.

On to `CCOC(=O)Oc1cc2c(s1)CC[N+]([O-])(Cc1ccccc1Cl)C2` (stereo not shown) [SR 26894], for which 24 µM corresponded to half-maximal inhibition in assay [1] (IC50).

`CC(=O)Oc1cc2c(s1)CCN(C(C(=O)N1CCCC1)c1ccccc1Cl)C2` (stereo not shown) [SR 26913] registered a 50% inhibitory concentration (IC50) in assay [1] of 32 µM.

In the case of `CC(=O)Oc1cc2c(s1)CC[N+]([O-])(C(C(=O)N1CCCC1)c1ccccc1Cl)C2` (stereo not shown) [SR 26914], the half-inhibitory concentration (IC50) in assay [1] is 25 µM.

For the compound `CC(C)(C)C(=O)Oc1cc2c(o1)CCN(Cc1ccccc1Cl)C2` [SR 26938, 5-(2-chlorobenzyl)-4,5,6,7-tetrahydrofuro-[3,2-c]pyrid-2yl t-butyrate], the results for the IC50 (in assay [1]; against human leucocyte elastase) were 3.6 µM and 3.1 µM, respectively.

For `CC(C)(C)C(=O)Oc1cc2c(s1)CC[N+]([O-])(Cc1ccc(Cl)cc1)C2` (stereo not shown) [SR 26977], the half-inhibitory concentration (IC50) amounted to 2.5 µM in assay [1] and 1.8 µM against human leucocyte elastase.

Regarding `CN1CCc2sc(OC(=O)C(C)(C)C)cc2C1` [SR 26984, 5-methyl-4,5,6,7-tetrahydrothieno[3,2-c]pyrid-2-yl t-butyrate], the IC50 in assay [1] is 3.6 µM; at human leucocyte elastase it was 2.6 µM.

`CC(C)(C)C(=O)Oc1cc2c(s1)CC[N+]([O-])(Cc1ccccc1)C2` (stereo not shown) [SR 26986]: the values for the IC50 (in assay [1]; on human leucocyte elastase) were 2.2 µM and 2.3 µM, respectively.

Regarding `CC(C)(C)C(=O)Oc1cc2c(o1)CC[N+]([O-])(Cc1ccccc1Cl)C2` (stereo not shown) [SR 26993], the IC50 in assay [1] stood at 1.7 µM; against human leucocyte elastase, 3.1 µM.

`CC(C)(C)C(=O)Oc1cc2c(s1)C[N+]([O-])(Cc1ccccc1Cl)CC2` (stereo not shown) [SR 26998]: the concentration for half-maximal inhibition (IC50) (in assay [1]; at human leucocyte elastase) was 2.2 µM each time.

In turn, `CC(C)(C)C(=O)Oc1cc2c(s1)CC[N+](C)([O-])C2` (stereo not shown) [SR 27165] registered an IC50 in assay [1] of 10 µM.

Take `CC(C)(C)C(=O)Oc1cc2c(s1)CC[N+](C)(Cc1ccccc1Cl)C2` (stereo not shown) [SR 27168]: the IC50 in assay [1] was 1.6 µM.

Take `COc1ccc(CN2CCc3sc(OC(=O)C(C)(C)C)cc3C2)cc1` [SR 27261]: the IC50 is 4.5 µM in assay [1] and 3.2 µM at human leucocyte elastase.

Regarding `COc1ccc(C[N+]2([O-])CCc3sc(OC(=O)C(C)(C)C)cc3C2)cc1` (stereo not shown) [SR 27262], the IC50 in assay [1] worked out at 1 µM; at human leucocyte elastase, 2.6 µM.

For the compound `CCCN1CCc2sc(OC(=O)C(C)(C)C)cc2C1` [SR 27318, 5-propyl-4,5,6,7-tetrahyirothieno[3,2-c]pyrid-2-yl t-butyrate], the figures for the concentration for half-maximal inhibition (IC50) (in assay [1]; on human leucocyte elastase) were 10 µM and 3 µM, respectively.

For `CCC[N+]1([O-])CCc2sc(OC(=O)C(C)(C)C)cc2C1` (stereo not shown) [SR 27325], the half-inhibitory concentration (IC50) in assay [1] was determined as 15 µM; against human leucocyte elastase, 0.7 µM.

`CC(c1ccccc1)[N+]1([O-])CCc2sc(OC(=O)C(C)(C)C)cc2C1` (stereo not shown) [SR 27354]: the values for the IC50 (in assay [1]; on human leucocyte elastase) were 10 µM and 2.6 µM, respectively.
